Measured values as given in article PMC11952846, “The sterol-regulating human ARV1 binds cholesterol and phospholipids through its conserved ARV1 homology domain” (The Journal of Biological Chemistry, 2025).
Changes are numbered by the printed parent chain. Values belong to the compound of their own block, whether it stands above or below them.

Tests used:
[1] = target: T1, GST-ARV1 (full-length ARV1) (Homo sapiens, UniProt Q9H2C2); experiment: Protein-lipid liposome binding assay (ultracentrifugation, Western blot); conditions: protein detected in final pellet
T1 construct: Expresses full length ARV1; made in house; host or cells: E. coli BL21 (pGEX-4T1)
T1 sequence (Q9H2C2 1-271): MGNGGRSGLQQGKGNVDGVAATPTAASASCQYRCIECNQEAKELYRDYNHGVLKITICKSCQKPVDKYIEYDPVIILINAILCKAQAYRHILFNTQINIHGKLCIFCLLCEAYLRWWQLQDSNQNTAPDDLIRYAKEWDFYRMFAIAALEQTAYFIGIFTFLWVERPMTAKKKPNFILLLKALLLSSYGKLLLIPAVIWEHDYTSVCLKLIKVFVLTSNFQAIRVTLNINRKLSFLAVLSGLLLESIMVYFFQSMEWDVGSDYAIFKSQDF
Protocol: (§1) Lyophilized lipids were reconstituted in chloroform at 10 mg/ml and stored in glass tubes with Teflon tops at −20 °C until use. One milliliter of 10 mg/ml stock was dried under a stream of nitrogen in a glass tube until a lipid cake/film was formed. The lipid cake was then rehydrated in BLT rehydration buffer (5 mM Tris/HCl, pH 7.4, containing 150 mM NaCl) to a concentration of 1 mg/ml. Lipid suspensions were subjected to three freeze/thaw cycles using a dry ice ethanol/[…] water bath to encapsulate the buffer and improve liposome formation. The suspension and lipid extruder were equilibrated to temperature for 10 min and liposomes were extruded using […] polycarbonate membranes (Avestin). Liposomes were made by mixing stock lipid PL (1 mg/ml) with PC (10 mg/ml).
Cholesterol composition liposomes were rehydrated with cholesterol rehydration buffer (10 mM Hepes, pH 7.4, containing 150 mM KCl).
(§2) Liposomes were serial diluted in floatation buffer (100 mM NaCl, 2 mM EDTA, pH 5.5) to a final concentration of 0.1 mg/ml. Nine hundred microliters of liposome solution was placed in clear ultracentrifuge tubes and mixed with 100 μl of 0.01 μg/ml of protein. The liposome/protein solution was incubated at room temperature for 1 h with occasional shaking. An initial 100 μl of liposome/protein solution (liposomes) was removed and the remaining 900 μl was centrifuged at 50,000g for 20 min at 4 °C. The pellet was resuspended in 800 μl of fresh floatation buffer, centrifuged as above, and 800 μl of supernatant was removed (wash 1). This was repeated a second time and again 800 μl of supernatant was removed (wash 2). The final pellet was resuspended in 100 μl of floatation buffer plus SDS treatment buffer (pellet). Thirty microliters of each fraction was run on a 15% SDS-PAGE gel and probed with an anti-GST monoclonal antibody at a 1:1500 dilution.

GST-Annexin A2 = GST-Annexin A2 (Homo sapiens, UniProt P07355); experiment: Protein-lipid liposome binding assay (positive control protein); conditions: protein detected in final pellet
Protocol: as §1, §2

6XHIS-N98 K67A = target: T2, 6XHIS-N98 K67A (Homo sapiens, UniProt Q9H2C2, K67A); experiment: HTRF phospholipid lipid-binding assay, mutant; parameters: key: NC, no change; conditions: biotinylated lipid; NC = no change vs N98
T2 construct: made in house; host or cells: E. coli BL21
T2 sequence (Q9H2C2 1-98 K67A): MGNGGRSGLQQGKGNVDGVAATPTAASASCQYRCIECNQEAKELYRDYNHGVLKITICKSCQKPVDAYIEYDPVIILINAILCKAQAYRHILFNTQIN
From the text: (§3) An HTRF assay was developed for 6XHIS-ARV1-N98-lipid binding. HTRF measures analyte interactions through fluorescence resonance energy transfer technology and time-resolved measurements ([53]). The interaction between two molecules can be quantified through binding each individual molecule involved with a fluorescent label and then analyzing the transfer of energy between the initial donor fluorophore and the secondary acceptor fluorophore. Following excitation of the first fluorophore, transfer of energy can only occur if the molecules bound with the fluorescent tags are within proximity to each other.
(§4) Assays were plated in 384-well flat bottom microplates (Greiner Bio, catalog #784075-25). Proteins were diluted using binding buffer (20 mM Hepes buffer, pH 7.2, containing 0.1% BSA, and 0.01% Tween20) to a stock concentration of 0.75 μM, and biotinylated phospholipids were dispensed, dried under nitrogen gas, and resuspended in binding buffer to a stock concentration of 50 μM. The lipid stock solution was diluted by 1:2 for a series of 12 serial dilutions. For the assay, in sequential order, 6 μl of binding buffer was loaded into the plate in triplicate for each dilution of phospholipid. To this, 2 μl of 0.75 μM 6XHIS-ARV1-N98 was added, followed by 2 μl of biotinylated phospholipid. Immediately following each addition loaded into the plate, the plate was centrifuged for 1 min at 1000 rpm to bring the contents to the bottom of the well. Next, detection antibodies were mixed with detection buffer (20 mM Hepes buffer, pH 8.5, containing 0.01% BSA and 200 mM KF). Antibodies were a MAb anti-6XHIS Europium kryptate-conjugated D1 fluorescent antibody (Cisbio, #61HISKLA) and Streptavidin-conjugated d2 fluorescent antibody (Cisbio, #610SADLA). For each 1000 μl of detection buffer, 5 μl of each antibody was added just prior to loading 10 μl into each well. The plate was again centrifuged for 1 min at 1000 rpm and stored in a sealed container overnight, in the dark. Plates were read on a PerkinElmer EnVision Xcite Multilabel plate reader.
(§5) Curves were logarithmically transformed and normalized to a common scale before being fit with a nonlinear regression of the agonist against the normalized response. This generated half maximal effective concentration values (EC50; M) that could then be compared between different lipids. In the context of our study, EC50 values were defined as a measure of protein sensitivity to binding to a particular lipid within a dose response curve. For phospholipid competition analysis, IC50; M values were determined using nonlinear regression of the inhibitor against normalized response.

6XHIS-N98 K84A = target: T3, 6XHIS-N98 K84A (Homo sapiens, UniProt Q9H2C2, K84A); experiment: HTRF phospholipid lipid-binding assay, mutant; parameters: key to Bio-PL, EC50, M ± S.D.: NC, no change; conditions: biotinylated lipid, NC = no change vs N98
T3 construct: made in house; host or cells: E. coli BL21
T3 sequence (Q9H2C2 1-98 K84A): T2 sequence (Q9H2C2 1-98 K67A) with A67K, K84A
From the text: as §3, §4, §5

Sequence of GST-Annexin A2 (P07355 whole entry): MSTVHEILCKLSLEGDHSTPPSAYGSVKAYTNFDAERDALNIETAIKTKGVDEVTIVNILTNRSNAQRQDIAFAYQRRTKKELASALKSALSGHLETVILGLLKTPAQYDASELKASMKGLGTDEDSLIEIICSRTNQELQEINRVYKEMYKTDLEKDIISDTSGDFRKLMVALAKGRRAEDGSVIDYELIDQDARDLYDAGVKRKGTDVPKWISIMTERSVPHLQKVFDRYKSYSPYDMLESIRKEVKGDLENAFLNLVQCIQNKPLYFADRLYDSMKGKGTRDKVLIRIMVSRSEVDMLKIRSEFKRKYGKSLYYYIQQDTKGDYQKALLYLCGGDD

binding to PC:PL liposomes [1]: bound | binding to PC:PL liposomes (GST-Annexin A2): bound
Compound: CCCCC/C=C\C/C=C\CCCCCCCC(=O)OC[C@H](COP(=O)(O)OCC(O)COP(=O)(O)OC[C@@H](COC(=O)CCCCCCC/C=C\C/C=C\CCCCC)OC(=O)CCCCCCC/C=C\C/C=C\CCCCC)OC(=O)CCCCCCC/C=C\C/C=C\CCCCC (stereo partly shown) [CL, cardiolipin]

binding to PC:PL liposomes [1]: bound | binding to PC:PL liposomes (GST-Annexin A2): bound | Bio-PL, EC50, M ± S.D. (6XHIS-N98 K67A): NC | Bio-PL, EC50, M ± S.D. (6XHIS-N98 K84A): NC
Compound: CCCCCCCCCCCCCCCC(=O)OC[C@H](COP(=O)(O)O)OC(=O)CCCCCCCCCCCCCCC [PA, phosphatidic acid]

binding to PC:PL liposomes [1]: very weakly | binding to PC:PL liposomes (GST-Annexin A2): very weakly | Bio-PL, EC50, M ± S.D. (6XHIS-N98 K67A): NC | Bio-PL, EC50, M ± S.D. (6XHIS-N98 K84A): NC
Compound: phosphatidylcholine [PC]

binding to PC:PL liposomes [1]: Neither | binding to PC:PL liposomes (GST-Annexin A2): Neither | EC50 (6XHIS-N98 K84A; read-out: Bio-PL, EC50, M ± S.D.): 210 nM
Compound: phosphatidylethanolamine [PE]

More lines, now with the values behind:

Compound: CCCCCCCC/C=C\CCCCCCCC(=O)OC[C@H](COP(=O)(O)OCC(O)CO)OC(=O)CCCCCCC/C=C\CCCCCCCC (stereo partly shown) [PG, phosphatidylglycerol]
binding to PC:PL liposomes [1]: bound | binding to PC:PL liposomes (GST-Annexin A2): bound | Bio-PL, EC50, M ± S.D. (6XHIS-N98 K67A): reduced PG binding | Bio-PL, EC50, M ± S.D. (6XHIS-N98 K84A): reduced

Compound: CCCCCCCCCCCCCCCCCC(=O)OC[C@H](COP(=O)(O)OC[C@H](N)C(=O)O)OC(=O)CCCCCCCCCCCCCCCCC [PS, phosphatidylserine]
binding to PC:PL liposomes [1]: bound | binding to PC:PL liposomes (GST-Annexin A2): bound | Bio-PL, EC50, M ± S.D. (6XHIS-N98 K67A): NC | Bio-PL, EC50, M ± S.D. (6XHIS-N98 K84A): NC

Compound: CCCCCC(=O)O[C@H](COC(=O)CCCCCNC(=O)CCCC[C@@H]1SC[C@@H]2NC(=O)N[C@@H]21)COP(=O)(O)O[C@H]1[C@H](O)[C@@H](O)[C@H](OP(=O)(O)O)[C@@H](O)[C@H]1O [reference compound]
Bio-PL, EC50, M ± S.D. (6XHIS-N98 K67A): weakened
